Target: T1, PD-1/PD-L1 (Homo sapiens, UniProt Q9NZQ7)
T1 construct: Recombinant human PD-L1 protein (19-238) with a His-tagged at the C-terminus; purchased AcroBiosystems PD1-H5229 (PD-L1); PD1-H5257 (PD-1)
Experiment: PD-1/PD-L1 Homogeneous Time-Resolved Fluorescence (HTRF) Binding Assay
Settings: 25° C., PBS pH 7.4, ~3 nM PD1, 10 nM PD-L1
Description: Example A: PD-1/PD-L1 Homogeneous Time-Resolved Fluorescence (HTRF) Binding Assay
Assays were performed in standard black 384-well polystyrene plates and a final volume was 20 μL. The inhibitor was first serially diluted with DMSO and added to the wells of the plate, followed by the addition of other reaction components. The final concentration of DMSO in the assay was 1%. Assays were performed at 25° C. in PBS buffer (pH 7.4) containing 0.05% Tween-20 and 0.1% BSA. Recombinant human PD-L1 protein (19-238) with a His-tagged at the C-terminus was purchased from AcroBiosystems (PD1-H5229). Recombinant human PD-1 protein (25-167) with an Fc tag at the C-terminus was also purchased from AcroBiosystems (PD1-H5257). The PD-L1 and PD-1 proteins were diluted in assay buffer and then […] of the solution was extracted and added to the wells of the plate. Plates were centrifuged and proteins and inhibitors were preincubated for 40 minutes. After incubation, 0.1 μl of HTRF detection buffer containing europium […] labeled anti-human IgG (PerkinElmer-AD0212), Fc-specific and anti-His SureLight®-Allophycocyanin (APC, PerkinElmer-AD0059H) conjugated antibodies was added. After centrifugation, the plates were incubated at 25° C. for 60 minutes. Data was read in a PHERAstar FS plate reader (665 nm/620 nm ratio). Final concentrations in the assay were ˜3 nM PD1, 10 nM PD-L1, 1 nM europium anti-human IgG, and 20 nM anti-His-allophycocyanin. Activity data were fitted using GraphPad Prism 5_0 software to derive IC50 values for inhibitors.

T1 sequence (Q9NZQ7 19-238): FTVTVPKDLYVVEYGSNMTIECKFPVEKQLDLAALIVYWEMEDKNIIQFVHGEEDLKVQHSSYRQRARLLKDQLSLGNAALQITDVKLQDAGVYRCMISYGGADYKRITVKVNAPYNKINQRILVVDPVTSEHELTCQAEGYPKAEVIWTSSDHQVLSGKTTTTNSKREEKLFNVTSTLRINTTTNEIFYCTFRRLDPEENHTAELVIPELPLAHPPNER

IC50 [nM] | Compound
≤ 10 | COc1nc(O[C@H]2CCc3c(-c4cccc(-c5nc6cc7c(c(C#N)c6o5)CC[C@H]7N5CC[C@@H](C(=O)NS(=O)(=O)C6CC6)C5)c4C)cccc32)c(Cl)cc1CN1CC[C@@H](O)C1 [Compound 079]
≤ 10 | COc1nc(O[C@H]2CCc3c(-c4cccc(-c5cc6cc7c(c(C#N)c6o5)CC[C@H]7N5CC[C@@H](C(=O)NS(=O)(=O)C6CC6)C5)c4C)cccc32)c(Cl)cc1CN1CC[C@@H](O)C1 [Compound 080]
≤ 10 | COc1nc(O[C@H]2CCc3c(-c4cccc(-c5nc6cc7c(c(C#N)c6o5)CC[C@H]7N5CC[C@@H](C(=O)O)C5)c4Cl)cccc32)c(C(F)F)cc1CN1CC[C@@H](O)C1 [Compound 086]
≤ 10 | COc1nc(O[C@H]2CCc3c(-c4cccc(-c5nc6cc7c(c(C#N)c6o5)CC[C@H]7N5CC[C@@H](C(=O)NS(=O)(=O)C6CC6)C5)c4C)cccc32)c(C(F)F)cc1CN1CC[C@@H](O)C1 [Compound 087]
≤ 10 | COc1nc(O[C@H]2CCc3c(-c4cccc(-c5nc6cc7c(c(C#N)c6o5)CC[C@H]7N5CC[C@@H](C(=O)NS(=O)(=O)C6CC6)C5)c4Cl)cccc32)c(C(F)F)cc1CN1CC[C@@H](O)C1 [Compound 088]
≤ 10 | COc1nc(O[C@H]2CCc3c(-c4cccc(-c5nc6cc7c(c(C#N)c6o5)CC[C@H]7N5CC[C@@H](C(=O)NS(=O)(=O)C6CC6)C5)c4Cl)cccc32)ccc1CN1CC[C@@H](O)C1 [Compound 093]
≤ 10 | COc1nc(O[C@H]2CCc3c(-c4cccc(-c5nc6cc7c(c(C#N)c6o5)CC[C@H]7N5CC[C@@H](C(=O)NS(=O)(=O)C6CC6)C5)c4C)cccc32)ccc1CN1CC[C@@H](O)C1 [Compound 094]
≤ 10 | COc1nc(O[C@H]2CCc3c(-c4cccc(-c5nc6cc7c(c(C#N)c6o5)CC[C@H]7N5CC[C@@H](C(=O)NS(=O)(=O)C6(C)CC6)C5)c4Cl)cccc32)c(Cl)cc1CN1CC[C@@H](O)C1 [Compound 096]
≤ 10 | COc1nc(O[C@H]2CCc3c(-c4cccc(-c5nc6cc7c(c(C#N)c6o5)CC[C@H]7N5CC[C@@H](C(=O)NS(=O)(=O)C6(C)CC6)C5)c4C)cccc32)c(Cl)cc1CN1CC[C@@H](O)C1 [Compound 098]

Second part, the compound before the results:

Compound | IC50 [nM]
COc1nc(O[C@H]2CCc3c(-c4cccc(-c5cc6cc7c(c(C#N)c6o5)CCC7N5CC[C@@H](C(=O)O)C5)c4C)cccc32)ccc1CN1CC[C@@H](O)C1 (stereo partly drawn) [Compound 001] | ≤ 10
COc1nc(O[C@H]2CCc3c(-c4cccc(-c5nc6cc7c(c(C#N)c6o5)CCC7N5CC[C@@H](C(=O)O)C5)c4C)cccc32)ccc1CN1CC[C@@H](O)C1 (stereo partly drawn) [Compound 003] | ≤ 10
COc1nc(O[C@H]2CCc3c(-c4cccc(-c5nc6cc7c(c(C#N)c6o5)CCC7N5CC[C@@H](C(=O)O)C5)c4Cl)cccc32)ccc1CN1CC[C@@H](O)C1 (stereo partly drawn) [Compound 004] | ≤ 10
COc1nc(O[C@H]2CCc3c(-c4cccc(-c5nc6cc7c(c(C#N)c6o5)CCC7N5CC[C@@H](C(=O)O)C5)c4Cl)cccc32)c(Cl)cc1CN1CC[C@@H](O)C1 (stereo partly drawn) [Compound 005] | ≤ 10
COc1nc(O[C@H]2CCc3c(-c4cccc(-c5nc6cc7c(c(C#N)c6o5)CC[C@H]7N5CC[C@@H](C(=O)O)C5)c4Cl)cccc32)c(Cl)cc1CN1CC[C@@H](O)C1 [Compound 006] | ≤ 10
COc1nc(O[C@H]2CCc3c(-c4cccc(-c5nc6cc7c(c(C#N)c6o5)CC[C@H]7N5CC[C@@H](C(=O)NS(=O)(=O)C6CC6)C5)c4Cl)cccc32)c(Cl)cc1CNC[C@H]1CCC(=O)N1 [Compound 081] | ≤ 10
COc1nc(O[C@H]2CCc3c(-c4cccc(-c5nc6cc7c(c(C#N)c6o5)CC[C@H]7N5CC[C@@H](C(=O)NS(=O)(=O)C6CC6)C5)c4Cl)cccc32)c(Cl)cc1CN1CC2(CCC(=O)N2)C1 [Compound 083] | ≤ 10
COc1nc(O[C@H]2CCc3c(-c4cccc(-c5nc6cc7c(c(C#N)c6o5)CC[C@H]7N5CC[C@@H](C(=O)NS(=O)(=O)C6(C)CC6)C5)c4C)cccc32)c(Cl)cc1CN1CC2(CCC(=O)N2)C1 [Compound 090] | ≤ 10
COc1nc(O[C@H]2CCc3c(-c4cccc(-c5nc6cc7c(c(C#N)c6o5)CC[C@H]7N5CC[C@@H](C(=O)O)C5)c4C)cccc32)ccc1CN1CC[C@@H](O)C1 [Compound 091] | ≤ 10
COc1nc(O[C@H]2CCc3c(-c4cccc(-c5nc6cc7c(c(C#N)c6o5)CC[C@H]7N5CC[C@@H](C(=O)O)C5)c4Cl)cccc32)ccc1CN1CC[C@@H](O)C1 [Compound 092] | ≤ 10
COc1nc(O[C@H]2CCc3c(-c4cccc(-c5nc6cc7c(c(C#N)c6o5)CC[C@H]7N5CC[C@@H](C(=O)NS(=O)(=O)C6(C)CC6)C5)c4C)cccc32)ccc1CN1CC[C@@H](O)C1 [Compound 095] | ≤ 10
COc1nc(O[C@H]2CCc3c(-c4cccc(-c5nc6cc7c(c(C#N)c6o5)CC[C@H]7N5CC[C@@H](C(=O)NS(=O)(=O)C6(C)CC6)C5)c4Cl)cccc32)ccc1CN1CC[C@@H](O)C1 [Compound 097] | ≤ 10

Source: US20220370429A1, “AROMATIC HETEROCYCLIC COMPOUND HAVING TRICYCLIC STRUCTURE, AND PREPARATION METHOD THEREFOR AND APPLICATION THEREOF” (SHANGHAI LONGWOOD BIOPHARMACEUTICALS CO., LTD., priority 2019, published 2022)
